Experimental data: ChEMBL document CHEMBL3044838, “Phytotoxic activity of quinones and resorcinolic lipid derivatives” (J Agric Food Chem, 2010)
Activity calls are given as the source filed them. No cut-off for these calls is given here.

Experiments:
Type in all cases: functional, organism-based
Lactuca sativa [1] = assay: Phytotoxic activity against Lactuca sativa cv. Iceberg A (lettuce) seedlings assessed as growth inhibition at 0.1 mM
Lactuca sativa [2] = assay: Phytotoxic activity against Lactuca sativa cv. Iceberg A (lettuce) seedlings assessed as growth inhibition at 1 mM
Agrostis stolonifera [3] = assay: Phytotoxic activity against Agrostis stolonifera var. Penncross seedlings assessed as growth inhibition at 0.03 mM
Agrostis stolonifera [4] = assay: Phytotoxic activity against Agrostis stolonifera var. Penncross seedlings assessed as growth inhibition at 0.01 mM
Lactuca sativa [5] = assay: Phytotoxic activity against Lactuca sativa cv. Iceberg A (lettuce) seedlings assessed as growth inhibition at 0.01 mM
Lactuca sativa [6] = assay: Phytotoxic activity against Lactuca sativa cv. Iceberg A (lettuce) seedlings assessed as growth inhibition at 0.03 mM
Agrostis stolonifera [7] = assay: Phytotoxic activity against Agrostis stolonifera var. Penncross seedlings assessed as growth inhibition at 0.1 mM
Agrostis stolonifera [8] = assay: Phytotoxic activity against Agrostis stolonifera var. Penncross seedlings assessed as growth inhibition at 0.3 mM
Agrostis stolonifera [9] = assay: Phytotoxic activity against Agrostis stolonifera var. Penncross seedlings assessed as growth inhibition at 1 mM
Lactuca sativa [10] = assay: Phytotoxic activity against Lactuca sativa cv. Iceberg A (lettuce) seedlings assessed as growth inhibition at 0.3 mM

| Compound | growth inhibition (GI) (Lactuca sativa [1]) | growth inhibition (GI) (Lactuca sativa [2]) | growth inhibition (GI) (Agrostis stolonifera [3]) | growth inhibition (GI) (Agrostis stolonifera [4]) | growth inhibition (GI) (Lactuca sativa [5]) | growth inhibition (GI) (Lactuca sativa [6]) | growth inhibition (GI) (Agrostis stolonifera [7]) | growth inhibition (GI) (Agrostis stolonifera [8]) | growth inhibition (GI) (Agrostis stolonifera [9]) | growth inhibition (GI) (Lactuca sativa [10]) |
| --- | --- | --- | --- | --- | --- | --- | --- | --- | --- | --- |
| CCCCCC1=C(O)C(=O)C=C(OC)C1=O | inactive | Active | inactive | inactive | inactive | inactive | – | – | – | – |
| C=CC/C=C\C/C=C\CCCCCCCC1=C(O)C(=O)C=C(OC)C1=O | – | – | inactive | inactive | inactive | inactive | inactive | inactive | inactive | – |
| CCCCCCCCCCCCCCC1=C(O)C(=O)C=C(OC)C1=O | inactive | – | inactive | inactive | inactive | inactive | inactive | inactive | inactive | – |
| CCCCCCCCCCC1=C(OC)C(=O)C=C(OC)C1=O | inactive | – | inactive | inactive | inactive | inactive | inactive | inactive | – | inactive |
| CCCCCC1=C(OC)C(=O)C=C(OC)C1=O | inactive | – | inactive | inactive | inactive | inactive | – | – | – | – |
